Each block holds one compound with its values, some of them ahead of it.
Columns and labels:
[1] = system: IL-6; experiment: IL-6 mRNA level (qPCR) in cytokine-stimulated Caco-2 cells; assay type: cell-based, human
Experimental: (§1) Confluent Caco-2 cells were stimulated with a cocktail of cytokines comprised of tumour necrosis factor-α (TNF-α, 20 ng mL^−1), interleukin-1β (IL-1β, 40 ng mL^−1), interferon-γ (IFN-γ, 10 ng mL^−1) and lipopolysaccharide (LPS, 100 ng mL^−1) in the presence or absence of BET, VUL and IND treatments (5–80 µM) for 6 h. With the completion of incubations, cells were washed with cold DPBS and lysed with TRIsure reagent (Scientific Laboratory Supplies Ltd.). Total RNA of cell samples was extracted in accordance with the manufacturer’s instructions. After resuspending the RNA pellets in DEPC water, concentration and quality were determined using the NanoQuant plate (Tecan Spark 10M plate reader) at 260 and 280 nm. Reverse transcription of RNA was achieved using the iScript™ cDNA Synthesis Kit (Bio-Rad). Transcription levels of target genes—interleukin 6 (IL-6), IL-8, COX-2, iNOS, NADPH oxidase 1 (NOX-1), NAD(P)H quinone dehydrogenase 1 (NQO-1), heme oxygenase 1 (HO-1), glutamate-cysteine ligase catalytic subunit (GCLC), glutathione peroxidase 1 (GPX-1), glutathione S-transferase 1 (GSTA-1) and GSTP-1 were evaluated using SybrGreen based reagent (SensiFast SYBR Green, SLS Ltd., Galveston, TX, USA) via real-time qPCR using StepOne Plus Real-Time PCR System (Applied Biosystems, Nottingham, UK). Primers of target genes were designed and blasted using the NCBI database, whose PCR product sizes were confirmed by 2% agarose gel electrophoresis. The list of primer sequences used in the study is presented in Supplemental Table S1. The calculation of target gene levels was based upon the Livak (2^−ΔΔCT) method with normalisation to the housekeeping gene, β-actin [31].

[2] = system: IL-8; experiment: IL-8 mRNA level (qPCR) in cytokine-stimulated Caco-2 cells; assay type: cell-based, human
Experimental: as §1

[3] = system: GCLC; experiment: GCLC mRNA level (qPCR) in cytokine-stimulated Caco-2 cells; assay type: cell-based, human; details: 5–80 μM, 6 h cytokine stimulation, vs SC
Experimental: as §1, with “Primers of target genes were designed and blasted using the NCBI database, whose PCR product sizes were confirmed by 2% agarose gel electrophoresis. The list of primer sequences used in the study is presented in Supplemental Table S1. The calculation of target gene levels was based upon the Livak (2^−ΔΔCT) method with normalisation to the housekeeping gene, β-actin [31].” left out

[4] = system: NOX-1; experiment: NOX-1 mRNA level (qPCR) in cytokine-stimulated Caco-2 cells; assay type: cell-based, human; details: 5–80 μM, 6 h cytokine stimulation, maximum effect
Experimental: as §1, with “Primers of target genes were designed and blasted using the NCBI database, whose PCR product sizes were confirmed by 2% agarose gel electrophoresis. The list of primer sequences used in the study is presented in Supplemental Table S1. The calculation of target gene levels was based upon the Livak (2^−ΔΔCT) method with normalisation to the housekeeping gene, β-actin [31].” left out

[5] = set-up: method as in PMID 15447903, PMID 24306215, PMID 28358315; details: in vivo; cited from earlier work
[6] = system: iNOS; experiment: iNOS mRNA level (qPCR) in cytokine-stimulated Caco-2 cells; assay type: cell-based, human; details: 5–80 μM, 6 h cytokine stimulation, maximum effect
Experimental: as §1, with “Primers of target genes were designed and blasted using the NCBI database, whose PCR product sizes were confirmed by 2% agarose gel electrophoresis. The list of primer sequences used in the study is presented in Supplemental Table S1. The calculation of target gene levels was based upon the Livak (2^−ΔΔCT) method with normalisation to the housekeeping gene, β-actin [31].” left out

[7] = system: COX-2; set-up: method as in PMID 23931157; details: 25 μM; cited from earlier work
[8] = system: Caco-2 cells; experiment: Intracellular ROS formation (DCFH2-DA) in H2O2-stressed Caco-2 cells; assay type: cell-based, human; details: at 80 μM, 200 μM H2O2
Experimental: The generation of reactive oxygen species (ROS) within Caco-2 cells was determined in 96-well plates with the probe 2′,7′-dichlorodihydrofluorescein diacetate (DCFH2-DA), which is intracellularly deacetylated and oxidised to highly fluorescent 2′,7′-dichlorofluorescein (DCF). DCFH2-DA (30 µM) dissolved in PBS with 1% FBS (v/v) was applied to the confluent Caco-2 cells and incubated for 40 min at 37 °C. After washing, cells were treated with BET, VUL and IND (5–80 μM) for 1 h and subsequently stressed with H2O2 (200 μM) for a further 1 h. The plate was scanned using Tecan Spark 10M^TM with excitation λ of 485 nm and emission λ of 535 nm. Subsequently, the protein content of each well was determined by SRB assay. Briefly, the medium was removed and the cells were washed with PBS and submerged with 50 μL of 0.004% SRB solution (w/v) in 10% trichloroacetic acid (w/v). Cells were incubated at room temperature for 15 min and washed with 1% acetic acid (200 μL, v/v). After treating with Tris base (10 mM, 100 μL), cells were incubated for 5 min under shaking conditions. Finally, the plate was scanned using a Tecan plate reader with excitation λ of 540 nm and emission λ of 590 nm. Results of the ROS assay were normalised to the relative protein content for each well and expressed as the relative fluorescence intensity % (RFI) with respect to the value of positive control.

[9] = system: iNOS; set-up: method as in PMID 23931157; details: 25 μM; cited from earlier work
[10] = system: iNOS; set-up: method as in PMID 24306215; details: rat model of carrageenan-induced pleurisy; cited from earlier work
[11] = system: differentiated Caco-2 cells; experiment: Intracellular accumulation in differentiated Caco-2 cells; assay type: in vitro ADME, human; details: 250 μM, 2 h incubation in HBSS
Experimental: For accumulation experiments, differentiated Caco-2 cells were incubated with purified BET, VUL and IND (250 μM) for 2 h in HBSS. The cell layer was washed twice with DPBS prior to being scraped into methanol, and pigments were subsequently extracted for LC-MS analysis. The total protein content of lysed cells was determined by bicinchoninic acid (BCA) assay (Pierce™ Thermo Scientific) in accordance with the manufacturer’s instructions.
(§2) Betalain compounds from the cell culture samples were quantified and identified by an ultra-high-speed LC fitted with a UV-Vis detector (SPD-20A), followed by a single quadrupole MS with an electrospray ionisation source (ESI) (Shimazu, 2020). HPLC separation was performed by a reverse phase C18 column (100 mm × 2.1 mm I.D., 3.5 μm) at the temperature of 35 °C. […] Betacyanins and betaxanthins were detected at the wavelengths of 536 nm and 486 nm, respectively, and their molecular weights were monitored by ESI-MS with positive ion mode. Compounds were identified based on the m/z values and quantified using standard curves with purified betalains, as shown in Supplemental Figure S1.

[12] = system: differentiated Caco-2 cells; experiment: Trans-epithelial transport (AP-to-BL) across differentiated Caco-2 monolayer; assay type: in vitro ADME, human; details: AP-to-BL
Experimental: (§3) Trans-epithelial transport of purified betalains (AP-to-BL) was investigated in differentiated Caco-2 cells in 12-well plate transwell inserts (PET membrane, 0.4 μm pore size, Sarstedt) at an initial density of 1 × 10^5 cells cm^−2. Complete medium was added in both apical (AP) and basolateral (BL) chambers and was replaced every 2–3 days. Cell membrane integrity was monitored weekly through measurement of trans-epithelial electrical resistance (TEER) across the growth area until full differentiation of the cells after 21 days. During the experiment, Hanks’ balanced salt solution (HBSS) in the apical compartment was adjusted to pH 6.5 with MES (2 mM), while basolateral pH remained at 7.5 [25]. Purified BET, VUL and IND (420–1000 μM) were supplied to the apical side of the membrane and incubated at 37 °C for up to 2 h. As a marker compound of paracellular transport, phenolsulfonaphtalein (5 mM) was also applied to parallel cell membranes in the apical chamber. The study also evaluated the permeability of compounds through the Caco-2 membrane with a loosened tight junction in parallel wells which was achieved by 5-min incubation of differentiated membrane in trypsin EDTA (0.05%, v/v). The basolateral solution was collected and replaced every 30 min until 2 h, under initial rate conditions. The betalain-containing solutions were processed and submitted to LC-MS analysis, while phenolsulfonaphtalein was quantified spectrophotometrically at λ of 430 nm. TEER values were monitored at the beginning and the end of the experiment to check the impact of compounds on monolayer integrity. The apparent permeability coefficients (Papp) were calculated as per Equation (1), where V = volume of basolateral solution, A = cell growth area, C0 = initial concentration of apical betalain and dC/dt = steady-state flux across the monolayer. (1) Papp=1/C0×A·V×dC/dt
as §2

[13] = as above; assay type: in vitro ADME, human; details: human, Caco-2, 1 mM in AP chamber, apical pH 6.5, basolateral pH 7.5, read-out: Papp (apparent permeability coefficient), absorptive direction AP-to-BL
Experimental: as §3, §2

[14] = system: COX-2; experiment: COX-2 mRNA level (qPCR) in cytokine-stimulated Caco-2 cells; assay type: cell-based, human; details: 5–80 μM, 6 h cytokine stimulation, maximum effect
Experimental: as §1, with “Primers of target genes were designed and blasted using the NCBI database, whose PCR product sizes were confirmed by 2% agarose gel electrophoresis. The list of primer sequences used in the study is presented in Supplemental Table S1. The calculation of target gene levels was based upon the Livak (2^−ΔΔCT) method with normalisation to the housekeeping gene, β-actin [31].” left out

[15] = EPR DPPH radical scavenging assay; details: 20 μM betalain
Experimental: (§4) Electron paramagnetic resonance (EPR) with spin trapping was used to determine superoxide and DPPH radical scavenging abilities of betalains reflected by the reduction of relative signal strength. EPR spectra were recorded 1 min after reagent mixing on a JEOL X320 spectrometer (X-band) in glass capillaries (0.8 mm ID). Superoxide assay was carried out by mixing the following solutions in 30% aqueous ethanol as solvent: hypoxanthine (1 mM, 55 μL), 5,5-dimethyl-1-pyrroline-N-oxide (DMPO) (1 M, 15 μL) and deferoxamine (10 mM, 10 μL). Individual betalains (200 and 500 μM) or solvent control were subsequently added in a volume of 10 μL. The reaction was initiated by the addition of 2 U mL^−1 xanthine oxidase (10 μL), achieving 20 and 50 μM as final concentrations of betalains in the mixture.
(§5) The 2,2-diphenyl-1-(2,4,6-trinitrophenyl)hydrazyl (DPPH) assay was conducted by mixing ethanol (40 μL) with 30% aqueous ethanol solutions of DPPH (100 μM, 50 μL) and purified betalains (200 μM, 10 μL), providing the working concentration of betalains as 20 μM. In both assays, acquisition of EPR spectra was started 1 min after reagent mixing. To improve the accuracy of measurements, the signal intensity for the superoxide assay was determined in triplicate by fitting the experimental spectra to the simulated superoxide-DMPO adduct spectra.

[16] = system: COX-2; set-up: method as in PMID 24306215; details: rat model of carrageenan-induced pleurisy; cited from earlier work
[17] = system: GSTA-1; experiment: GSTA-1 mRNA level (qPCR) in cytokine-stimulated Caco-2 cells; assay type: cell-based, human; details: 5–80 μM, 6 h cytokine stimulation, vs SC
Experimental: as §1, with “Primers of target genes were designed and blasted using the NCBI database, whose PCR product sizes were confirmed by 2% agarose gel electrophoresis. The list of primer sequences used in the study is presented in Supplemental Table S1. The calculation of target gene levels was based upon the Livak (2^−ΔΔCT) method with normalisation to the housekeeping gene, β-actin [31].” left out

[18] = system: NOX-1; set-up: method as in PMID 23931157; details: 25 μM; cited from earlier work
[19] = EPR spin-trapping superoxide radical scavenging assay; details: 20, 50 μM betalain
Experimental: as §4, §5

[20] = system: GPX-1; experiment: GPX-1 mRNA level (qPCR) in cytokine-stimulated Caco-2 cells; assay type: cell-based, human; details: 5–80 μM, 6 h cytokine stimulation, vs SC
Experimental: as §1, with “Primers of target genes were designed and blasted using the NCBI database, whose PCR product sizes were confirmed by 2% agarose gel electrophoresis. The list of primer sequences used in the study is presented in Supplemental Table S1. The calculation of target gene levels was based upon the Livak (2^−ΔΔCT) method with normalisation to the housekeeping gene, β-actin [31].” left out

[21] = set-up: method as in PMID 18959410; details: cited from earlier work
[22] = 10 μM co-treatment, 6 h, positive control (not shown)
[23] = 5–80 μM, 6 h cytokine stimulation, maximum effect

Compound: COc1cc(/C=C/C(=O)CC(=O)/C=C/c2ccc(O)c(OC)c2)ccc1O [curcumin, reference compound]
- Effect on cytokine-induced IL-6 generation [1, 22]: strongly suppressed
- Effect on cytokine-induced IL-8 generation [2, 22]: strongly suppressed

- Intracellular accumulation [11]: 0.03 nmol per mg of protein
- Proportion transported within 2 h of total amount applied [12]: 2.2%
- Papp A→B at 2 h, 1 mM [13]: 0.893 ×10⁻⁶ cm/s
Compound: O=C(O)C1=C/C(=C/C=[N+]2/CCC[C@H]2C(=O)[O-])C[C@@H](C(=O)O)N1 [IND, indicaxanthin]
- Upregulation of GCLC expression [3]: < 25%
- Attenuation of NOX-1 mRNA levels [4]: up to 34%
- Plasma concentration of IND compared with BET [5]: around 20 fold
- Urinary recovery of IND compared with BET [5]: around 20 fold
- Reduction of iNOS mRNA levels [6]: < 42%
- Suppression of COX-2 protein levels [7]: 80%
- Reduction of H2O2-stimulated ROS [8]: 14%
- Suppression of iNOS protein levels [9]: 90%
- Suppression of iNOS [10]: 75%
- Downregulation of IL-6 expression vs cytokine control (SC) [1, 23]: up to 50%
- Downregulation of IL-8 expression vs cytokine control (SC) [2, 23]: ≤ 39%
- Attenuation of COX-2 mRNA levels [14]: up to 34%
- Antiradical activity in DPPH assay (EPR) [15]: did not exhibit any evident antiradical activity
- Suppression of COX-2 [16]: 88%
- Induction of GSTA-1 expression [17]: < 50%
- Suppression of NOX-1 protein levels [18]: 89%
- Antiradical activity in superoxide assay (EPR) [19]: did not exhibit any evident antiradical activity
- Upregulation of GPX-1 expression [20]: < 26%
- Loss along the digestion [21]: minor loss

— PMC9405451, “Uptake and Immunomodulatory Properties of Betanin, Vulgaxanthin I and Indicaxanthin towards Caco-2 Intestinal Cells” (Antioxidants, 2022)
